Earlier results, collected in US20040034083A1, “Combination therapy for the treatment of Parkinson's disease with cyclooxygenase-2 (COX2) inhibitor(s)” (priority 2002, published 2004).

Columns and labels:
[1] = levodopa/carbidopa therapy of PD

N[C@@H](Cc1ccc(O)c(O)c1)C(=O)O [levodopa]
duration of effectiveness after initiation of therapy [1]: about 5 years
fraction of levodopa that reaches the brain (levodopa alone administered orally): about 1%
fraction of orally administered levodopa metabolized by decarboxylase (then unable to cross the BBB) (oral administration, without carbidopa): Up to 99%
